Experimental data reported in patent publication US20080070890A1, “Spirocyclic Azetidinone Compounds and Methods of Use Thereof” (priority 2006, published 2008).

Biological target: TRPV1 (Homo sapiens, UniProt Q8NER1)
Assay: cell-based
Procedure: Combine 42 μL of dye mixture with 11 mL of FLIPR buffer/96-well plate.
Laser is adjusted upwards for an average signal≧10,000/well and less than 10% variability.

TRPV1, sequence (Q8NER1 whole entry, species assumed): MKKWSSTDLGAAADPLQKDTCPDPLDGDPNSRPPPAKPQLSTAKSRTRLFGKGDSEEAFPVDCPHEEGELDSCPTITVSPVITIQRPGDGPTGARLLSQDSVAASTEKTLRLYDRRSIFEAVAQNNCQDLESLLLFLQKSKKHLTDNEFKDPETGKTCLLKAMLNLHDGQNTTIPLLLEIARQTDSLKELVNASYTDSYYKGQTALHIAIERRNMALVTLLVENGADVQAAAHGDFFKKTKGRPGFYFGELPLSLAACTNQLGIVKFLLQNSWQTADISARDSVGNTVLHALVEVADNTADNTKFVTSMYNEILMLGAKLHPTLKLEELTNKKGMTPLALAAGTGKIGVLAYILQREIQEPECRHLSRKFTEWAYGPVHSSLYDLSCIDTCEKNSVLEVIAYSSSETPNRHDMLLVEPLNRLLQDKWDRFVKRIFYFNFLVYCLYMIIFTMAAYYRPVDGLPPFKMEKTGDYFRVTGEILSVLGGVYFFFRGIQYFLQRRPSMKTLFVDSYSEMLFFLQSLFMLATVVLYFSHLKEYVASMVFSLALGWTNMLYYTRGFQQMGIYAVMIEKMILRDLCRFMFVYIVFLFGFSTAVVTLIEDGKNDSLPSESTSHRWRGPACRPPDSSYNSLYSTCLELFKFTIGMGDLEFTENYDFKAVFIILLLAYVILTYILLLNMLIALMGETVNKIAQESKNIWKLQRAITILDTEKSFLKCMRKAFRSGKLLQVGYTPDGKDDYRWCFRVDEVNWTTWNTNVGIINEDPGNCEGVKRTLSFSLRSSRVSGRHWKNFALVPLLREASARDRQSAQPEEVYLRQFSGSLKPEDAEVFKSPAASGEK

Oc1cc2c(cc1O)CN(C(=S)NCCc1ccc(Cl)cc1)CCC2 [capsazepine]
IC50: ~500 nM
